# Data: ChEMBL document CHEMBL5050844 (2019)
# Key:
# Type in all cases: functional, T cell line
# [1] = Induction of anti-CD3 antibodies-stimulated human T cell activation at 1 uM assessed fold increase in CD25 expression measured by ELISA assay; also: reference of the scale not given here
# [2] = Induction of anti-CD3/CD28 antibodies-stimulated human T cell activation at 0.3 uM assessed fold increase in IL-2 secretion measured by ELISA assay
# [3] = Induction of anti-CD3 antibodies-stimulated human T cell activation at 8 uM assessed fold increase in CD25 expression measured by ELISA assay; also: reference of the scale not given here
# [4] = Induction of anti-CD3/CD28 antibodies-stimulated human T cell activation at 4 uM assessed fold increase in IL-2 secretion measured by ELISA assay
# [5] = Induction of anti-CD3/CD28 antibodies-stimulated human T cell activation at 0.3 uM assessed fold increase in CD25 expression measured by ELISA assay
# [6] = Induction of anti-CD3/CD28 antibodies-stimulated human T cell activation at 1 uM assessed fold increase in CD25 expression measured by ELISA assay
# [7] = Induction of anti-CD3 antibodies-stimulated human T cell activation at 1 uM assessed fold increase in IL-2 secretion measured by ELISA assay; also: reference of the scale not given here
# [8] = Induction of anti-CD3 antibodies-stimulated human T cell activation at 8 uM assessed fold increase in IL-2 secretion measured by ELISA assay; also: reference of the scale not given here
# [9] = Induction of anti-CD3/CD28 antibodies-stimulated human T cell activation at 4 uM assessed fold increase in CD25 expression measured by ELISA assay
# [10] = Induction of anti-CD3/CD28 antibodies-stimulated human T cell activation at 1 uM assessed fold increase in IL-2 secretion measured by ELISA assay
SMILES,fold change (FC) [1],fold change (FC) [2],fold change (FC) [3],fold change (FC) [4],fold change (FC) [5],fold change (FC) [6],fold change (FC) [7],fold change (FC) [8],fold change (FC) [9],fold change (FC) [10]
C[C@H](Sc1nncn1C)c1cccc(NC(=O)c2ccc(Cl)c(C(F)(F)F)n2)c1,0.801,<=1,>=1.001,1.01,1.01,1.01,<=0.05,<=0.05,1.01,<=1
Cn1cnnc1[C@@H]1CC[C@@H]1c1cccc(N2Cc3c(cccc3C(F)(F)F)C2=O)c1,0.601,5,0.801,>=7.5,1.01,1.01,0.101,>=0.201,1.01,>=7.5
C[C@H](Sc1nncn1C)c1ccc(F)c(NC(=O)c2cccc(C(F)(F)F)n2)c1,<=0.6,1.01,<=0.6,2.51,<=1,1.01,<=0.05,0.051,1.01,1.01
C[C@@H](c1cccc(N2Cc3c(cccc3C(F)(F)F)C2=O)c1)C(F)(F)c1nncn1C,0.601,1.01,0.801,2.51,1.01,1.01,<=0.05,0.101,1.01,1.01
C[C@H](Cc1nocc1C(F)(F)F)c1cccc(N2Cc3c(cc(C(=O)N4CC[C@H](O)C4)cc3C(F)(F)F)C2=O)c1,0.601,1.01,>=1.001,2.51,1.01,1.01,0.051,>=0.201,1.31,1.01
C[C@H](Cc1nncn1C)c1cccc(NC(=O)c2[nH]nc3c2CCCC3)c1,0.601,1.01,0.801,1.01,1.01,1.01,0.051,0.051,1.01,1.01
CC1OCC1Oc1cc([C@H](C)Cc2nncn2C)cc(N2Cc3c(cccc3C(F)(F)F)C2=O)n1 (stereo not given in full),0.601,1.01,0.601,1.01,1.01,1.01,0.051,0.101,1.01,1.01
CC1CCc2c1n[nH]c2C(=O)Nc1cccc([C@H](C)Cc2nncn2C)c1 (stereo not given in full),0.601,1.01,>=1.001,5,<=1,<=1,0.101,>=0.201,1.01,2.51
"Cn1cnnc1[C@H](F)[C@@](C)(F)c1cccc(N2Cc3c(cc(C4CC4)cc3C(F)(F)F)C2=O)c1 (single isomer, unassigned; 482)",0.601,<=1,0.801,1.01,1.01,1.01,0.051,0.051,1.01,1.01
C[C@H](Sc1nncn1C)c1cccc(N2Cc3c(cccc3C(F)(F)F)C2=O)c1,0.601,<=1,0.801,1.01,<=1,1.01,<=0.05,<=0.05,1.01,<=1
C[C@H](Cc1nncn1C)c1cccc(NC(=O)c2cc(S(N)(=O)=O)cc(C(F)(F)F)n2)c1,0.801,<=1,>=1.001,1.01,1.01,1.01,<=0.05,0.051,1.01,<=1
C[C@H](Cc1nncn1C)c1ccnc(N2Cc3c(cccc3C(F)(F)F)C2=O)c1,<=0.6,<=1,<=0.6,1.01,1.01,1.01,<=0.05,<=0.05,1.31,<=1
Cc1cc(C)nc(C(=O)Nc2cccc([C@H](C)Sc3nncn3C)c2)c1,<=0.6,2.51,0.801,>=7.5,1.01,1.01,<=0.05,<=0.05,1.01,5
C[C@H](Cc1nncn1C)c1cccc(NC(=O)c2cc(O[C@H]3CC[C@@H](O)C3)ccn2)c1,0.801,1.01,0.801,2.51,1.01,1.01,<=0.05,0.051,1.01,1.01
Cc1cnnn1C[C@@H](C)c1cccc(NC(=O)c2cccc(C(F)(F)F)n2)c1,0.601,1.01,0.801,2.51,<=1,1.01,0.051,0.151,1.01,1.01
COc1cc(C(=O)Nc2cccc([C@H](C)Cc3nncn3C)c2)nc(C(F)(F)F)c1,0.801,1.01,0.801,1.01,1.01,1.01,0.101,0.101,1.01,1.01
C[C@H](Cc1nncn1C)c1cc(NC2CCC2)nc(N2Cc3c(cccc3C(F)(F)F)C2=O)c1,0.601,1.01,>=1.001,1.01,1.01,1.01,<=0.05,0.151,1.01,1.01
Cn1cnnc1C[C@](C)(F)c1cccc(N2Cc3c(cccc3C(F)(F)F)C2=O)c1,0.601,1.01,0.801,1.01,1.01,<=1,0.051,0.101,1.01,1.01
Cc1ncc(C(=O)Nc2cccc([C@H](C)Sc3nncn3C)c2)nc1C1CC1,0.801,<=1,0.801,2.51,1.31,1.31,<=0.05,0.051,1.51,1.01
C[C@H](Cc1nncn1C)c1cccc(N2Cc3c(cc([C@@H]4CCCNC4)cc3C(F)(F)F)C2=O)c1,0.601,2.51,>=1.001,5,1.01,1.31,0.101,>=0.201,1.51,5
"Cn1cnnc1[C@H](F)[C@@](C)(F)c1cccc(N2Cc3c(cc(C4CC4)cc3C(F)(F)F)C2=O)c1 (single isomer, unassigned; 483)",0.601,<=1,0.801,1.01,1.01,1.01,0.051,0.051,1.01,1.01
C[C@H](O)CNc1cc([C@H](C)Cc2nncn2C)cc(N2Cc3c(cccc3C(F)(F)F)C2=O)n1,0.601,1.01,0.601,1.01,1.01,1.01,0.051,0.101,1.01,1.01
